Positions count from the first letter of the chain named. Several values for one entry are separate records, joined by “and”; a condition that tells them apart may be missing. Equal entries are not always repeated. Ends that are not written are not given here.
How the values were obtained:
[1] = molecular target: T1, HLA-DP4 (DPA1*01:03/DPB1*04:01) expressed on K562 cells (Homo sapiens, UniProt P04440+P20036); assay: cell-based; assay type: binding
T1 construct: expressed in transfected cells; host or cells: K562 (human erythroleukemic cells without endogenous MHC class II, Ii or HLA-DM), retrovirally transduced, pMX vector
T1 sequence (P20036 29-260): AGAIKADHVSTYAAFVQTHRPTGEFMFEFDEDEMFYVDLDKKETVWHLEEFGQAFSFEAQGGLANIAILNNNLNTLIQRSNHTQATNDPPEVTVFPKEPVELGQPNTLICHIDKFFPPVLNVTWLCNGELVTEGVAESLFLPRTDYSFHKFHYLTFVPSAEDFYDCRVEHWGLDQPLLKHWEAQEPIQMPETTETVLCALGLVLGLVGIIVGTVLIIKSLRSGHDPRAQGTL
T1 sequence (P04440 30-258): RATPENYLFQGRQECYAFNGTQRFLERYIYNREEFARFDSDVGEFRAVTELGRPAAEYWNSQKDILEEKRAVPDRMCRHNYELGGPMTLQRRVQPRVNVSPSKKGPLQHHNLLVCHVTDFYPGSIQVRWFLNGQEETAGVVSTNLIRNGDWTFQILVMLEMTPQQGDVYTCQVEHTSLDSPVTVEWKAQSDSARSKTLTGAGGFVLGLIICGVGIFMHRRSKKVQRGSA

[2] = molecular target: T2, DP4^84DEAV87 (substitution mutant of DPB1*04:01 with DPA1*01:03) expressed on K562 cells (Homo sapiens, UniProt P04440+P20036, G113D/G114E/M116V/P115A); assay: cell-based; assay type: binding
T2 construct: expressed in transfected cells; host or cells: K562 (human erythroleukemic cells without endogenous MHC class II, Ii or HLA-DM), retrovirally transduced, pMX vector
T2 sequence (P20036 29-260): T1 sequence (P20036 29-260)
T2 sequence (P04440 30-258 G113D/G114E/P115A/M116V): T1 sequence (P04440 30-258) with G84D, G85E, P86A, M87V

| Sequence | IC50 [1] | IC50 [2] |
| --- | --- | --- |
| KKLLTQHFVQENYLEY [MAGE-A3_243–258, reference compound] | 28.7 µM | 33.7 µM |
| LPKPPKPVSKMRMATPLLMQALPM [CLIP] | 12.2 µM and 14.7 µM | 6 µM |
| LPKPPKPVSKMRMATPLLMQALPMGALPQ [C-extended CLIP] | 15.3 µM | – |
| NLRMKLPKPPKPVSKMRMATPLLMQALPM [N-extended CLIP] | 29.8 µM | – |

— paper PMC5859192, “Mechanisms underlying the lack of endogenous processing and CLIP-mediated binding of the invariant chain by HLA-DP^84Gly” (Scientific Reports, 2018)
